Data taken from ChEMBL document CHEMBL3352742, “Synthesis, molecular docking and biological evaluation of coumarin derivatives containing piperazine skeleton as potential antibacterial agents” (Bioorg Med Chem, 2014).
pIC50: −log10 of the molar value. In brackets after ≈: the same amount, converted by molar mass.

system: Staphylococcus aureus; assay: Antibacterial against Staphylococcus aureus ATCC 25923 after 24 hrs by two-fold serial dilution method; assay type: functional; conditions: ATCC 25923, 24 h

For O=c1cc(OCC(O)CN2CCN(c3cccc(Cl)c3Cl)CC2)c2ccccc2o1 (stereo not given), which MIC is on record?
The MIC was 26 µg/mL (≈ 57.8 µM).

With O=c1cc(OCC(O)CN2CCN(c3ccccc3Cl)CC2)c2ccccc2o1 (stereo not given) as the molecule, how does the MIC read?
Its MIC is 11.6 µg/mL (≈ 28.1 µM).

With O=c1cc(OCC(O)CN2CCN(c3ccc(F)cc3)CC2)c2ccccc2o1 (stereo not given) as the molecule, how does the MIC read?
Its MIC is over 50 µg/mL.

For O=c1cc(OCC(O)CN2CCN(c3ccc(Cl)c(Cl)c3)CC2)c2ccccc2o1 (stereo not given), which MIC is on record?
The MIC was over 50 µg/mL.

For O=c1cc(OCC(O)CN2CCN(c3cccc(Cl)c3)CC2)c2ccccc2o1 (stereo not given), which MIC is on record?
Its MIC is over 50 µg/mL.

With O=c1cc(OCC(O)CN2CCN(c3ccccc3)CC2)c2ccccc2o1 (stereo not given) as the molecule, how does the MIC read?
The MIC was over 50 µg/mL.

With O=C(COc1cc(=O)oc2ccccc12)N1CCN(c2ccccc2)CC1 as the molecule, how does the MIC read?
Its MIC is 41.5 µg/mL (≈ 114 µM).

Which MIC does the source give for O=c1cc(OCC(O)CN2CCN(Cc3ccccc3)CC2)c2ccccc2o1 (stereo not given) here?
The MIC was 23 µg/mL (≈ 58.4 µM).

Which MIC does the source give for O=C(COc1cc(=O)oc2ccccc12)N1CCN(c2ccc([N+](=O)[O-])cc2)CC1 here?
The MIC was over 50 µg/mL.

For Cc1ccc(N2CCN(C(=O)COc3cc(=O)oc4ccccc34)CC2)c(C)c1, which MIC is on record?
The MIC was 46.4 µg/mL (≈ 118 µM).

For O=C(COc1cc(=O)oc2ccccc12)N1CCN(c2ccccc2F)CC1, which MIC is on record?
Its MIC is over 50 µg/mL.

Which MIC does the source give for O=C(COc1cc(=O)oc2ccccc12)N1CCN(c2ccccc2Cl)CC1 here?
The MIC was 28.5 µg/mL (≈ 71.4 µM).

For O=C(COc1cc(=O)oc2ccccc12)N1CCN(c2ccc(Cl)cc2)CC1, which MIC is on record?
The MIC was over 50 µg/mL.

Which MIC does the source give for O=c1cc(OCC(O)CN2CCN(c3ccccc3F)CC2)c2ccccc2o1 (stereo not given) here?
The MIC was over 50 µg/mL.

For O=C(COc1cc(=O)oc2ccccc12)N1CCN(c2cccc(Cl)c2)CC1, which MIC is on record?
Its MIC is over 50 µg/mL.

system: Escherichia coli; assay: Antibacterial against Escherichia coli ATCC 25922 after 24 hrs by two-fold serial dilution method; assay type: functional; conditions: ATCC 25922, 24 h

For O=c1cc(OCC(O)CN2CCN(c3cccc(Cl)c3Cl)CC2)c2ccccc2o1 (stereo not given), which MIC is on record?
The MIC was over 50 µg/mL.

With O=c1cc(OCC(O)CN2CCN(c3ccccc3Cl)CC2)c2ccccc2o1 (stereo not given) as the molecule, how does the MIC read?
Its MIC is over 50 µg/mL.

For O=c1cc(OCC(O)CN2CCN(c3ccc(F)cc3)CC2)c2ccccc2o1 (stereo not given), which MIC is on record?
The MIC was 40.4 µg/mL (≈ 101 µM).

With O=c1cc(OCC(O)CN2CCN(c3ccc(Cl)c(Cl)c3)CC2)c2ccccc2o1 (stereo not given) as the molecule, how does the MIC read?
The MIC was over 50 µg/mL.

Which MIC does the source give for O=c1cc(OCC(O)CN2CCN(c3cccc(Cl)c3)CC2)c2ccccc2o1 (stereo not given) here?
The MIC was 40.6 µg/mL (≈ 97.8 µM).

With O=c1cc(OCC(O)CN2CCN(c3ccccc3)CC2)c2ccccc2o1 (stereo not given) as the molecule, how does the MIC read?
The MIC was over 50 µg/mL.

Which MIC does the source give for O=C(COc1cc(=O)oc2ccccc12)N1CCN(c2ccccc2)CC1 here?
The MIC was 33.6 µg/mL (≈ 92.3 µM).

Which MIC does the source give for O=c1cc(OCC(O)CN2CCN(Cc3ccccc3)CC2)c2ccccc2o1 (stereo not given) here?
Its MIC is over 50 µg/mL.

With O=C(COc1cc(=O)oc2ccccc12)N1CCN(c2ccc([N+](=O)[O-])cc2)CC1 as the molecule, how does the MIC read?
The MIC was over 50 µg/mL.

For Cc1ccc(N2CCN(C(=O)COc3cc(=O)oc4ccccc34)CC2)c(C)c1, which MIC is on record?
Its MIC is over 50 µg/mL.

With O=C(COc1cc(=O)oc2ccccc12)N1CCN(c2ccccc2F)CC1 as the molecule, how does the MIC read?
Its MIC is over 50 µg/mL.

With O=C(COc1cc(=O)oc2ccccc12)N1CCN(c2ccccc2Cl)CC1 as the molecule, how does the MIC read?
The MIC was over 50 µg/mL.

For O=C(COc1cc(=O)oc2ccccc12)N1CCN(c2ccc(Cl)cc2)CC1, which MIC is on record?
The MIC was over 50 µg/mL.

With O=c1cc(OCC(O)CN2CCN(c3ccccc3F)CC2)c2ccccc2o1 (stereo not given) as the molecule, how does the MIC read?
The MIC was over 50 µg/mL.

With O=C(COc1cc(=O)oc2ccccc12)N1CCN(c2cccc(Cl)c2)CC1 as the molecule, how does the MIC read?
Its MIC is over 50 µg/mL.

system: Bacillus subtilis; assay: Antibacterial against Bacillus subtilis ATCC 530 after 24 hrs by two-fold serial dilution method; assay type: functional; conditions: ATCC 530, 24 h

With O=c1cc(OCC(O)CN2CCN(c3cccc(Cl)c3Cl)CC2)c2ccccc2o1 (stereo not given) as the molecule, how does the MIC read?
Its MIC is 18.2 µg/mL (≈ 40.4 µM).

For O=c1cc(OCC(O)CN2CCN(c3ccccc3Cl)CC2)c2ccccc2o1 (stereo not given), which MIC is on record?
Its MIC is 13.9 µg/mL (≈ 33.6 µM).

For O=c1cc(OCC(O)CN2CCN(c3ccc(F)cc3)CC2)c2ccccc2o1 (stereo not given), which MIC is on record?
Its MIC is over 50 µg/mL.

Which MIC does the source give for O=c1cc(OCC(O)CN2CCN(c3ccc(Cl)c(Cl)c3)CC2)c2ccccc2o1 (stereo not given) here?
Its MIC is 0.339 µg/mL (≈ 0.754 µM).

With O=c1cc(OCC(O)CN2CCN(c3cccc(Cl)c3)CC2)c2ccccc2o1 (stereo not given) as the molecule, how does the MIC read?
The MIC was 26 µg/mL (≈ 62.6 µM).

Which MIC does the source give for O=c1cc(OCC(O)CN2CCN(c3ccccc3)CC2)c2ccccc2o1 (stereo not given) here?
The MIC was 37.9 µg/mL (≈ 99.7 µM).

For O=C(COc1cc(=O)oc2ccccc12)N1CCN(c2ccccc2)CC1, which MIC is on record?
The MIC was over 50 µg/mL.

With O=c1cc(OCC(O)CN2CCN(Cc3ccccc3)CC2)c2ccccc2o1 (stereo not given) as the molecule, how does the MIC read?
Its MIC is over 50 µg/mL.

Which MIC does the source give for O=C(COc1cc(=O)oc2ccccc12)N1CCN(c2ccc([N+](=O)[O-])cc2)CC1 here?
The MIC was 1.94 µg/mL (≈ 4.73 µM).

For Cc1ccc(N2CCN(C(=O)COc3cc(=O)oc4ccccc34)CC2)c(C)c1, which MIC is on record?
Its MIC is 34.4 µg/mL (≈ 87.7 µM).

For O=C(COc1cc(=O)oc2ccccc12)N1CCN(c2ccccc2F)CC1, which MIC is on record?
Its MIC is 31.3 µg/mL (≈ 81.9 µM).

With O=C(COc1cc(=O)oc2ccccc12)N1CCN(c2ccccc2Cl)CC1 as the molecule, how does the MIC read?
The MIC was 7.18 µg/mL (≈ 18 µM).

With O=C(COc1cc(=O)oc2ccccc12)N1CCN(c2ccc(Cl)cc2)CC1 as the molecule, how does the MIC read?
The MIC was 15.8 µg/mL (≈ 39.5 µM).

Which MIC does the source give for O=c1cc(OCC(O)CN2CCN(c3ccccc3F)CC2)c2ccccc2o1 (stereo not given) here?
The MIC was over 50 µg/mL.

For O=C(COc1cc(=O)oc2ccccc12)N1CCN(c2cccc(Cl)c2)CC1, which MIC is on record?
The MIC was 2.94 µg/mL (≈ 7.37 µM).

system: Pseudomonas aeruginosa; assay: Antibacterial against Pseudomonas aeruginosa ATCC 27853 after 24 hrs by two-fold serial dilution method; assay type: functional; conditions: ATCC 27853, 24 h

Which MIC does the source give for O=c1cc(OCC(O)CN2CCN(c3cccc(Cl)c3Cl)CC2)c2ccccc2o1 (stereo not given) here?
Its MIC is over 50 µg/mL.

Which MIC does the source give for O=c1cc(OCC(O)CN2CCN(c3ccccc3Cl)CC2)c2ccccc2o1 (stereo not given) here?
Its MIC is over 50 µg/mL.

Which MIC does the source give for O=c1cc(OCC(O)CN2CCN(c3ccc(F)cc3)CC2)c2ccccc2o1 (stereo not given) here?
Its MIC is over 50 µg/mL.

With O=c1cc(OCC(O)CN2CCN(c3ccc(Cl)c(Cl)c3)CC2)c2ccccc2o1 (stereo not given) as the molecule, how does the MIC read?
The MIC was over 50 µg/mL.

For O=c1cc(OCC(O)CN2CCN(c3cccc(Cl)c3)CC2)c2ccccc2o1 (stereo not given), which MIC is on record?
Its MIC is over 50 µg/mL.

Which MIC does the source give for O=c1cc(OCC(O)CN2CCN(c3ccccc3)CC2)c2ccccc2o1 (stereo not given) here?
Its MIC is over 50 µg/mL.

For O=C(COc1cc(=O)oc2ccccc12)N1CCN(c2ccccc2)CC1, which MIC is on record?
The MIC was over 50 µg/mL.

With O=c1cc(OCC(O)CN2CCN(Cc3ccccc3)CC2)c2ccccc2o1 (stereo not given) as the molecule, how does the MIC read?
Its MIC is over 50 µg/mL.

Which MIC does the source give for O=C(COc1cc(=O)oc2ccccc12)N1CCN(c2ccc([N+](=O)[O-])cc2)CC1 here?
Its MIC is over 50 µg/mL.

With Cc1ccc(N2CCN(C(=O)COc3cc(=O)oc4ccccc34)CC2)c(C)c1 as the molecule, how does the MIC read?
Its MIC is over 50 µg/mL.

With O=C(COc1cc(=O)oc2ccccc12)N1CCN(c2ccccc2F)CC1 as the molecule, how does the MIC read?
The MIC was over 50 µg/mL.

Which MIC does the source give for O=C(COc1cc(=O)oc2ccccc12)N1CCN(c2ccccc2Cl)CC1 here?
The MIC was over 50 µg/mL.

For O=C(COc1cc(=O)oc2ccccc12)N1CCN(c2ccc(Cl)cc2)CC1, which MIC is on record?
The MIC was over 50 µg/mL.

For O=c1cc(OCC(O)CN2CCN(c3ccccc3F)CC2)c2ccccc2o1 (stereo not given), which MIC is on record?
Its MIC is over 50 µg/mL.

Which MIC does the source give for O=C(COc1cc(=O)oc2ccccc12)N1CCN(c2cccc(Cl)c2)CC1 here?
The MIC was 46 µg/mL (≈ 115 µM).

system: not listed separately; assay: Inhibition of Staphylococcus aureus FabI assessed as oxidation of NADH to NAD+ by spectrophotometrically; conditions: not given

With O=c1cc(OCC(O)CN2CCN(c3cccc(Cl)c3Cl)CC2)c2ccccc2o1 (stereo not given) as the molecule, how does the pIC50 read?
Its pIC50 is 4.90.

With O=c1cc(OCC(O)CN2CCN(c3ccccc3Cl)CC2)c2ccccc2o1 (stereo not given) as the molecule, how does the pIC50 read?
The pIC50 was 4.75.

With O=c1cc(OCC(O)CN2CCN(c3ccc(F)cc3)CC2)c2ccccc2o1 (stereo not given) as the molecule, how does the pIC50 read?
Its pIC50 is 4.20.

With O=c1cc(OCC(O)CN2CCN(c3ccc(Cl)c(Cl)c3)CC2)c2ccccc2o1 (stereo not given) as the molecule, how does the pIC50 read?
Its pIC50 is 4.65.

With O=c1cc(OCC(O)CN2CCN(c3cccc(Cl)c3)CC2)c2ccccc2o1 (stereo not given) as the molecule, how does the pIC50 read?
Its pIC50 is 4.50.

With O=c1cc(OCC(O)CN2CCN(c3ccccc3)CC2)c2ccccc2o1 (stereo not given) as the molecule, how does the pIC50 read?
The pIC50 was 4.32.

With O=C(COc1cc(=O)oc2ccccc12)N1CCN(c2ccccc2)CC1 as the molecule, how does the pIC50 read?
Its pIC50 is 4.34.

With O=c1cc(OCC(O)CN2CCN(Cc3ccccc3)CC2)c2ccccc2o1 (stereo not given) as the molecule, how does the pIC50 read?
The pIC50 was 4.38.

With O=C(COc1cc(=O)oc2ccccc12)N1CCN(c2ccc([N+](=O)[O-])cc2)CC1 as the molecule, how does the pIC50 read?
The pIC50 was 4.94.

With Cc1ccc(N2CCN(C(=O)COc3cc(=O)oc4ccccc34)CC2)c(C)c1 as the molecule, how does the pIC50 read?
Its pIC50 is 4.37.

With O=C(COc1cc(=O)oc2ccccc12)N1CCN(c2ccccc2F)CC1 as the molecule, how does the pIC50 read?
The pIC50 was 4.36.

With O=C(COc1cc(=O)oc2ccccc12)N1CCN(c2ccccc2Cl)CC1 as the molecule, how does the pIC50 read?
The pIC50 was 4.66.

With O=C(COc1cc(=O)oc2ccccc12)N1CCN(c2ccc(Cl)cc2)CC1 as the molecule, how does the pIC50 read?
The pIC50 was 4.45.

With O=c1cc(OCC(O)CN2CCN(c3ccccc3F)CC2)c2ccccc2o1 (stereo not given) as the molecule, how does the pIC50 read?
Its pIC50 is 4.15.

With O=C(COc1cc(=O)oc2ccccc12)N1CCN(c2cccc(Cl)c2)CC1 as the molecule, how does the pIC50 read?
The pIC50 was 4.58.
